# Experiments:
# [1] = molecular target: 11-beta-hydroxysteroid dehydrogenase 1 (Homo sapiens, UniProt P28845); experiment: Inhibition of human 11-beta HSD1 transfected in HEK293 cell microsomes assessed as decrease in [3H]cortisol generation using [3H]cortisone as substrate measured after 60 mins by scintillation proximity assay; parameters: species or system Microsome
# Rattus norvegicus [2] = experiment: (§1) Oral bioavailability in rat at 6 mg/kg; format: ADME, organism-based; conditions: in vivo
# [3] = Half life in rat at 6 mg/kg, po; format: ADME, organism-based; parameters: dose 6 mg/kg, route oral; conditions: in vivo
# Rattus norvegicus [4] = experiment: (§2) AUC (0 to t) in rat at 6 mg/kg, po; format: ADME, organism-based, Plasma; parameters: dose 6 mg/kg, route oral; conditions: in vivo
# Rattus norvegicus [5] = experiment: (§3) Clearance in rat at 3 mg/kg, iv; format: ADME, organism-based; parameters: dose 3 mg/kg, route intravenous; conditions: in vivo
# CYP1A2 = molecular target: T1, CYP1A2 (Homo sapiens, UniProt P05177); experiment: Inhibition of CYP1A2 in human microsomes using phenacetin as substrate at 10 uM after 5 mins; format: ADME, Microsome; conditions: probe phenacetin
# T1 sequence (P05177 whole entry): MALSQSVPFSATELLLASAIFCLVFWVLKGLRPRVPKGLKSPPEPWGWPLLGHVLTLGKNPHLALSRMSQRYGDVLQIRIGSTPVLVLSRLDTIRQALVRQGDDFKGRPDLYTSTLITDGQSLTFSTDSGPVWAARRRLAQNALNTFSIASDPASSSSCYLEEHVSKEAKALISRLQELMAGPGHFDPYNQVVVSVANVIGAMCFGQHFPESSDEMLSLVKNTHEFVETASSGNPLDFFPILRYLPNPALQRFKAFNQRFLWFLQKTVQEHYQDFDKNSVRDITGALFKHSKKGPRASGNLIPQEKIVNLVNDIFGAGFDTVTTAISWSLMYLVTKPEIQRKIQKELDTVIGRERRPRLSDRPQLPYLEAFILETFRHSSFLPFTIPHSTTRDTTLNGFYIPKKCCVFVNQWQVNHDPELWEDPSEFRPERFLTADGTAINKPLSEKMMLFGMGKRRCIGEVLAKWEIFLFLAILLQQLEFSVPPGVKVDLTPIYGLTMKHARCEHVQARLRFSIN
# CYP2D6 = CYP2D6 (Homo sapiens, UniProt P10635); experiment: Inhibition of CYP2D6 in human microsomes using dextrpmethorphan as substrate at 10 uM after 5 mins; format: ADME, Microsome; conditions: probe dextromethorphan (printed: dextrpmethorphan)
# CYP3A4 = CYP3A4 (Homo sapiens, UniProt P08684); experiment: Inhibition of CYP3A4 in human microsomes using midazolam as substrate at 10 uM after 5 mins; format: ADME, Microsome; conditions: probe midazolam
# [6] = Intrinsic clearance in human liver microsomes at 1 uM preincubated for 5 mins measured per mg protein by LC/MS/MS analysis; format: ADME, Microsome; conditions: read-out: CLH
# [7] = as §1; format: ADME, organism-based; conditions: in vivo
# [8] = as §2; format: ADME, organism-based, Plasma; parameters: dose 6 mg/kg, route oral; conditions: plasma
# [9] = as §3; format: ADME, organism-based; parameters: dose 3 mg/kg, route intravenous; conditions: in vivo
# Sequence of 11-beta-hydroxysteroid dehydrogenase 1 (P28845 whole entry): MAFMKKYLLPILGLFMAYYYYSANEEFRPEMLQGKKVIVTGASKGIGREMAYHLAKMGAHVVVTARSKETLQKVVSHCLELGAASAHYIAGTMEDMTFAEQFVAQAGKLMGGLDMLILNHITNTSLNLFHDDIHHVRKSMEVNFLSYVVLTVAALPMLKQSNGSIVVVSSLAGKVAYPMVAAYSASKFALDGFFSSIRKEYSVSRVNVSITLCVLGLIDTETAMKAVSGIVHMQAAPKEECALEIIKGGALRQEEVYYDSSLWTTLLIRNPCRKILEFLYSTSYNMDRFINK
# Sequence of CYP2D6 (P10635 whole entry): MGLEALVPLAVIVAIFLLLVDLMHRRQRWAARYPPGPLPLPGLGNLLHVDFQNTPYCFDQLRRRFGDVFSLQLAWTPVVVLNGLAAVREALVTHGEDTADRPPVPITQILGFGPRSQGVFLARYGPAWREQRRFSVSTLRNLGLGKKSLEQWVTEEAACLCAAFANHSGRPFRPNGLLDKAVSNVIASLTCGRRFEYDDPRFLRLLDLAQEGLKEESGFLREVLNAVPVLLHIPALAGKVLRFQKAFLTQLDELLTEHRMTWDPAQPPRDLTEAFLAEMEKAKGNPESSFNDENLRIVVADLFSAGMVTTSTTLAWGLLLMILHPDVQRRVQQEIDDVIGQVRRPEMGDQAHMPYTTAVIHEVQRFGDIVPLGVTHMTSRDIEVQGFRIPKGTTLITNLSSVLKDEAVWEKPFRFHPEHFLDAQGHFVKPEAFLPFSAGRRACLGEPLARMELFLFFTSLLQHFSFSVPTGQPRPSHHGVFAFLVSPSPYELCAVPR
# Sequence of CYP3A4 (P08684 whole entry): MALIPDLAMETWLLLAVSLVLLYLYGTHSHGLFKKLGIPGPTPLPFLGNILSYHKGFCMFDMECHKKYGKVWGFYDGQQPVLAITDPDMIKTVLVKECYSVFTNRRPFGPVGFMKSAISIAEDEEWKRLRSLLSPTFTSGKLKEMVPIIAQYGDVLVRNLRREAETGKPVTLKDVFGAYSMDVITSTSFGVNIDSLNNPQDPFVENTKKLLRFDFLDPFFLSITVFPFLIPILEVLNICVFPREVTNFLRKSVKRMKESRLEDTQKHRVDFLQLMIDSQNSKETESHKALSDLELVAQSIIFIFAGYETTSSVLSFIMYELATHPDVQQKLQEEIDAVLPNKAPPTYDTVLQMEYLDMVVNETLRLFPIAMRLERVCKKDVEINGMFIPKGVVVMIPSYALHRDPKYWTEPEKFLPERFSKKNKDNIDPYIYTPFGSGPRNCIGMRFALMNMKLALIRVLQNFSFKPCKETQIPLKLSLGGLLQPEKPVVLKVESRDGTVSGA
Compound,IC50 [1] [nM],further results
Cc1c(Cl)cccc1C(=O)N1CCC[C@H](c2nc(C34CC5CC(CC(C5)C3)C4)no2)C1,> 1000,
Cc1c(Cl)cccc1C(=O)N1CCC[C@H](c2nc(-c3ccc(F)cc3)no2)C1,956,
O=C(c1cccc(Cl)c1)N1CCC[C@H](c2nc(-c3ccccc3)no2)C1,741,
Cc1c(Cl)cccc1C(=O)N1CCC[C@H](c2nc(-c3cccc(Br)c3)no2)C1,310,
Cc1c(Cl)cccc1C(=O)N1CCC[C@H](c2nnc(-c3ccccc3)[nH]2)C1,945,
O=C(c1ccco1)N1CCC[C@H](c2nc(-c3ccccc3)no2)C1,659,
Cc1ccccc1C(=O)N1CCC[C@H](c2nc(-c3ccccc3)no2)C1,435,
O=C(c1ccccc1)N1CCC[C@H](c2nc(-c3ccccc3)no2)C1,2370,
O=C(C1CCC1)N1CCC[C@H](c2nc(-c3ccccc3)no2)C1,326,
O=C(C1CCCCCC1)N1CCC[C@H](c2nc(-c3ccccc3)no2)C1,1480,
Cc1c(Cl)cccc1C(=O)N1CCC[C@H](c2nc(C3CCCCC3)no2)C1,621,
CC1(C)C(C(=O)N2CCC[C@H](c3nc(-c4ccccc4)no3)C2)C1(C)C,793,
O=C(c1ccccc1Cl)N1CCC[C@H](c2nc(-c3ccccc3)no2)C1,853,
Cc1c(Cl)cccc1C(=O)N1CCC[C@H](c2nnc(-c3ccccc3)o2)C1,1320,
Cn1cccc1C(=O)N1CCC[C@H](c2nc(-c3ccccc3)no2)C1,715,
Cc1c(Cl)cccc1C(=O)N1CCC[C@H](c2nc(-c3cccs3)no2)C1,> 1000,
Cc1c(Cl)cccc1C(=O)N1CCC[C@H](c2nc(-c3ccccc3Br)no2)C1,825,
O=C(c1ccc(Cl)cc1)N1CCC[C@H](c2nc(-c3ccccc3)no2)C1,277,
Cc1c(Cl)cccc1C(=O)N1CCC[C@H](c2nc(-c3ccc(Br)cc3)no2)C1,> 1000,
Cc1c(Cl)cccc1C(=O)N1CCC[C@H](n2nnc(-c3ccccc3)n2)C1,594,

# Continued by falling IC50 [1], values first:
IC50 [1] [nM],Compound,further results
277,Cc1c(Cl)cccc1C(=O)N1CCC[C@H](c2nc(-c3ccccc3Cl)no2)C1,
141,Cn1ccc2c(C(=O)N3CCC[C@H](c4nc(-c5ccccc5)no4)C3)cccc21,
107,Cc1c(Cl)cccc1C(=O)N1CCC[C@H](c2noc(-c3ccccc3)n2)C1,
92,O=C(C1CC1)N1CCC[C@H](c2nc(-c3ccccc3)no2)C1,
71,O=C(C1CCCCC1)N1CCC[C@H](c2nc(-c3ccccc3)no2)C1,"F (Rattus norvegicus [2]): 36%; half-life [3]: 1.3 h; AUCt (Rattus norvegicus [4]): 25.3 µM·min; CL (Rattus norvegicus [5]): 24 mL/min/kg; inhibition at 5 min, 10 µM (CYP1A2): 16%; inhibition at 5 min, 10 µM (CYP2D6): 12%; inhibition at 5 min, 10 µM (CYP3A4): 7.7%; microsomal CLint at 1 µM [6]: 44 µL/min/mg"
28,Cc1cccc(C(=O)N2CCC[C@H](c3nc(-c4ccccc4)no3)C2)c1Cl,
27,Cc1c(Cl)cccc1C(=O)N1CCC[C@H](c2nc(-c3ccccc3)no2)C1,
3.3,Cc1c(Br)cccc1C(=O)N1CCC[C@H](c2nc(-c3ccccc3)no2)C1,"F (Rattus norvegicus [2]): 25%; half-life [3]: 2.1 h; AUCt (Rattus norvegicus [4]): 34.1 µM·min; CL (Rattus norvegicus [5]): 16 mL/min/kg; inhibition at 5 min, 10 µM (CYP1A2): 0%; inhibition at 5 min, 10 µM (CYP2D6): 0%; inhibition at 5 min, 10 µM (CYP3A4): 22%; microsomal CLint at 1 µM [6]: 63 µL/min/mg"
0.8,Cc1c(Cl)cccc1S(=O)(=O)N1CCC[C@H](C(=O)NC2CCCCC2)C1,"bioavailability [7]: 8%; half-life [3]: 0.4 h; AUC(0-t) [8]: 0.188 µM·h; clearance [9]: 130 mL/min/kg; inhibition at 5 min, 10 µM (CYP1A2): 16%; inhibition at 5 min, 10 µM (CYP2D6): 34%; inhibition at 5 min, 10 µM (CYP3A4): 73%; microsomal CLint at 1 µM [6]: 209 µL/min/mg"

# — ChEMBL document CHEMBL2331386, “Design, synthesis and SAR of piperidyl-oxadiazoles as 11β-hydroxysteroid dehydrogenase 1 inhibitors” (Eur J Med Chem, 2013)
